Legend:
[1] = In vivo 13C EPI imaging of hyperpolarized urea in mouse; conditions: healthy female Balb/c mouse, monitored for 30 minutes
Experimental: Hyperpolarized [^13C, ^15N2]-urea was studied under clinical imaging conditions. A healthy female Balb/c mouse (12 weeks old) was injected with identical volumes of hyperpolarized [^13C, ^15N]-urea dissolved in either buffered D2O or H2O (FIG. 9A). Both samples were polarized for similar amounts of time and were dissolved to similar final concentrations. Immediately following the end of the injection, an axial 2D ^13C echo-planar imaging (EPI) sequence was initiated with a 3 s repetition time, 16×16 resolution with 2.25 mm×2.25 mm×10 mm voxels.

[2] = Thermal equilibrium T1 at high field (14.1T), inversion recovery; type: physicochemical; conditions: for T1 Value (s) D2O: 95:5 D2O:H2O, 100 mM Tris pD 7.4; for T1 Value (s) H2O: 100% H2O, 100 mM Tris pH 7.4
Experimental: (§1) [5-^13C]-glutamine (Cambridge Isotope Laboratories), [^13C]-urea (Sigma Aldrich), [^13C, ^15N2]-urea (Sigma Aldrich), [6-^13C]-arginine (Cambridge Isotope Laboratories), [5-^13C, ^15N]-glutamine (24) (24, as described in Example 7) and [6-^13C, ^15N3]-arginine (21, as described in Example 2) were evaluated to determine thermal equilibrium T1 and T2. An aliquot of each compound was dissolved in 95:5 D2O:H2O containing 100 mM Tris pD 7.4 and 100% H2O containing 100 mM Tris pH 7.4. [^13C]-urea and [^13C, ^15N2]-urea were dissolved to a final concentration of 100 mM.
(§2) ^13C NMR spectra for each compound dissolved in 95:5 D2O:H2O and 100% H2O was obtained with a 14.1T ^13C NMR (Bruker, USA). For inversion recovery experiments, 13 to 15 different delay times between the 180° and 90° pulses, spanning 3T1, were sampled. Each spectrum was an average of 3 to 4 scans, and a 5T1 to 6T1 pre-scan wait time was used to allow re-polarization of carbon nuclear spins between scans. T2 values were measured using a Carr-Purcell-Meiboom-Gill (CPMG) sequence for each compound dissolved in 95:5 D2O:H2O and 100% H2O. A 10 ms (or 5 ms ^13C-urea samples) wait-time between 180° pulses was used, and signal was acquired at total echo times spanning 3T2. For both T1- and T2-relaxation curve fitting, spectra were imported into Mnova (Mestrelabs, USA) and the area under the curve (AUC) of the ^13C resonance of interest was integrated. AUC values were exported to Prism 7 (GraphPad Software, USA), plotted against time on the x-axis, and data points were fit to the Bloch equations for T1 and T2.
(§3) When each compound was dissolved in D2O, the exchangeable protons on the nitrogen atoms rapidly exchange with deuterium in the solvent. As described in Table 1, at high field, each compound having protons exchanged with deuterium extended the T1 of ^13C relaxation times directly bonded to —NH or —NH2 residues, respectively. This effect is further illustrated for [6-^13C]-/[6-^13C, ^15N3]-arginine in FIG. 7.

[3] = Hyperpolarized T1 at 1T after dissolution in buffered H2O or D2O; type: physicochemical; conditions: for Hyperpolarized T1 Value (s) D2O: dissolution in 100 mM Tris 1 mM EDTA pD 7.4 D2O; for Hyperpolarized T1 Value (s) H2O: dissolution in 100 mM Tris 1 mM EDTA pH 7.4 H2O
Experimental: Each compound was prepared with a different formulation, as follows: [5-^13C]- and [5-^13C, ^15N]-glutamine was mixed with 1.1 equivalent HCl and dissolved to a final concentration of 1.5 Min H2O:DMSO (65:35). [^13C]— and [^13C, ^15N2]-urea was dissolved to a final concentration of 6M in glycerol. [6-^13C]- and [6-^13C, ^15N3]-arginine was mixed with 1 equivalent HCl and dissolved to a final concentration of 3.2M in H2O. Each of these preparations also contained OX063 radical (General Electric, UK) dissolved to a final concentration of 15 mM. [^13C]—/[^13C, ^15N2]-urea and [6-^13C]-/[6-^13C, ^15N3]-arginine samples were polarized in a 3.35T SpinLab Polarizer (General Electric, UK) for 1.5 hours (0.83K, 93.98 GHz), while: [5-^13C]-/[^13C, ^15N]-glutamine samples were polarized in a 5T SpinLab Polarizer for 2 hours (0.83K, 93.98 GHz). Following polarization, the HP substrate was ejected from the polarizer via rapid dissolution, during which a superheated solution of 100 mM Tris 1 mM EDTA in pH 7.4 H2O or pD 7.4 D2O is run through the sample vial to dissolve the polarized substrate and eject it into a pre-chilled glass vial (−20° C.).

[4] = Thermal equilibrium T2 at high field (14.1T), CPMG; type: physicochemical; conditions: for T2 Value (s) D2O: 95:5 D2O:H2O, 100 mM Tris pD 7.4; for T2 Value (s) H2O: 100% H2O, 100 mM Tris pH 7.4
Experimental: as §1, §2, §3

[5] = Hyperpolarized T1 of arginine guanidine-carbon at 1T; type: physicochemical; conditions: 30° flip angle, 3 s repetition time, average of two
Experimental: To confirm the reduction of quadrupolar relaxation at the guanidine-carbon by ^15N enrichment, ^13C NMR spectra for unlabeled and [6-^13C, 6-^15N3]-L-Arginine-HCl (21, as described in Example 2) was obtained with a 14.1T ^13C NMR. The full width half max (FWHM) of the guanidine-carbon peak was measured, and the FWHM of the carbon-1 peak was used as an internal standard. For hyperpolarized T1 measurements compound 21 was mixed with 1 equivalent HCl and dissolved to a final concentration of 1.3 M in 2:3 H2O:glycerol with 15 mM of a OX063 radical. The sample was polarized for at least 1 h in a SpinSolve polarizer. […] This was performed twice and the calculated T1 values were averaged.
The FWHM of the guanidine-carbon peak for natural abundance and compound 21 was measured to be 1.4 Hz and 1.0 Hz, respectively, and the FWHM of carbon-1 was 0.9 Hz for both compounds (FIG. 5B).

U251 cells = test: CellROX green fluorescence microscopy of intracellular ROS; type: cell-based; conditions: menadione-treated U251 cells, co-incubation for 45 min
Experimental: Western blots for XO and xanthine transporter were performed using 20 ng of protein extract from 14 cell lines. In vitro fluorescent microscopy using CellROX green was performed in U251 cells to evaluate intracellular reactive oxygen species (ROS) and the effect of xanthine as an ROS scavenger. 14 different cancer cell lines from renal, sarcoma, lung, prostate, breast, pancreatic, oral, epithelial cancer were also screened to evaluate expression of xanthine transporter and XO. In all the cells, a high expression of XO was observed, whereas xanthine transporter was variable between the cell lines, with the largest expression in U251 cells. Therefore, this cell line was used for further in vitro fluorescence experiments (FIG. 3).

[6] = Hyperpolarized T1 measurement of 13C,15N-xanthine at 1T; type: physicochemical; conditions: mono-exponential decay fit corrected for flip angle
Experimental: (§4) A preparation containing 0.15-0.2 M [2-^13C, 1,3-^15N2]-3,7-dihydro-1H-purine-2,6-dione (6, as described in Example 1) and the OX063 radical was hyperpolarized using a SPINlab hyperpolarizer. T1 measurements were performed using 1T Magritek Spectrometer. For the acquisition of hyperpolarized spectra, data was acquired with a 5 s repetition time and 15° excitation for a total of 45 s. In vitro enzymatic experiments to evaluate the activity of XO in oxidizing xanthine (XA) to uric acid (UA) using superoxide as a cofactor were performed using 100 mg of mouse liver extract together with a PMS/NADH+ system to generate O^2−. ^13C NMR spectra was acquired using a 14.1T NMR spectrometer.
(§5) Compound 6 was hyperpolarized. The ^13C chemical shift between hyperpolarized XA and hyperpolarized UA was measured and determined to be 0.8 ppm. After dissolution, spectra of compound 6 were obtained and fit to a mono-exponential decay function, correcting for flip angle, to determine the spin-lattice relaxation time. A T1 of 77±1.4 s was measured (FIG. 2).

Xanthine Oxidase (XO) = target: T1, Xanthine Oxidase (XO) (Mus musculus, UniProt Q00519); test: In vitro oxidation of xanthine by XO in mouse liver extract with O2− (PMS/NADH system), 13C NMR; type: biochemical; conditions: 100 mg mouse liver extract, in the presence of O2−
T1 construct: from tissue; host or cells: mouse liver extract
T1 sequence (Q00519 whole entry): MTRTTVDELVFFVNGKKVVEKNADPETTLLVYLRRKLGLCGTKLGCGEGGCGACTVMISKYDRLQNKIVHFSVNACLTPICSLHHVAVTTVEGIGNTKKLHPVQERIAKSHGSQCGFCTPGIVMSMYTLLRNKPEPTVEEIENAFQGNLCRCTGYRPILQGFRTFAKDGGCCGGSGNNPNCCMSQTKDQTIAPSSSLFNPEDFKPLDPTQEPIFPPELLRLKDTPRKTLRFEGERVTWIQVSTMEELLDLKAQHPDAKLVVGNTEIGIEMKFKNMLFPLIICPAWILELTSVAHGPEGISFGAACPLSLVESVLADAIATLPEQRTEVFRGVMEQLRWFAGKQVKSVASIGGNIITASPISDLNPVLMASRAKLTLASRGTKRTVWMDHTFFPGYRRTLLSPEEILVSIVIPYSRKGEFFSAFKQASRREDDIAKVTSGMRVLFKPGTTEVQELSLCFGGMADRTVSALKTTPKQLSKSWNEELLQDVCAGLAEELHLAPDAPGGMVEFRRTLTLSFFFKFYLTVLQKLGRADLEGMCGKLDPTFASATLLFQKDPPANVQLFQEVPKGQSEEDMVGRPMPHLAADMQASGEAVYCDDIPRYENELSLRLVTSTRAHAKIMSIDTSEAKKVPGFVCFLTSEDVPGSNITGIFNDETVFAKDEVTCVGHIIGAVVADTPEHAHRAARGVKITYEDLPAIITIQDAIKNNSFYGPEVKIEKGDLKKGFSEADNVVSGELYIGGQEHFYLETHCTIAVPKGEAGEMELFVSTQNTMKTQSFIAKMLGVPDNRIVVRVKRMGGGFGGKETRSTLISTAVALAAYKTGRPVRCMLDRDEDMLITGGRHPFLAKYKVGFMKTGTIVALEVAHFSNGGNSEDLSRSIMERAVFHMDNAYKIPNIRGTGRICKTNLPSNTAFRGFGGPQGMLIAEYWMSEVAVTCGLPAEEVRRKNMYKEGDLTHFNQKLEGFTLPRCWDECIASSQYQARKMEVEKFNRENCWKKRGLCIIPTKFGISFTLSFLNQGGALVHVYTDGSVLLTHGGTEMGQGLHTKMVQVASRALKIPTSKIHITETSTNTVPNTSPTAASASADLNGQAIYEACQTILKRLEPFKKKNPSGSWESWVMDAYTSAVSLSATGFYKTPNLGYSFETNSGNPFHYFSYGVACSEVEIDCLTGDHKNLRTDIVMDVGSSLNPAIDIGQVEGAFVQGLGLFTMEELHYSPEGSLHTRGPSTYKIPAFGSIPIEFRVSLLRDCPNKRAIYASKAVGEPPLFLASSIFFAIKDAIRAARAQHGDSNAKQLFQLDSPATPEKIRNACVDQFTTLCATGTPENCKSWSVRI
Experimental: as §4, §5

SMILES	morbidity after the two injections [1]	T1 Value (s) D2O [2] [s]	T1 Value (s) H2O [2] [s]	Hyperpolarized T1 Value (s) D2O [3] [s]	Hyperpolarized T1 Value (s) H2O [3] [s]	T2 Value (s) D2O [4] [s]	T2 Value (s) H2O [4] [s]	T1 of the guanidine-carbon [5]	oxidative stress (CellRox fluorescence) (U251 cells)	T1 (spin-lattice relaxation time) [6] [s]	time to be oxidized in liver extracts (Xanthine Oxidase (XO))
[15NH2][13C]([15NH2])=O [Urea ^13C, ^15N2, [^13C, ^15N2]-urea]	no obvious morbidity	57.34 ± 2.04	31.97 ± 1.38	115.9 ± 8.5	53.3 ± 2.6	34.61 ± 0.64	20.12 ± 0.17				
N=[13C](N)NCCC[C@H](N)C(=O)O [Arginine ^13C, [6-^13C]-arginine]		9.74 ± 0.32	6.62 ± 0.22	32.1 ± 4.5		0.234 ± 0.004	0.184 ± 0.003	could not be measured			
N[C@@H](CC[13C]([15NH2])=O)C(=O)O [Compound 24, (5-13C, 5-15N) L-glutamine]		12.29 ± 0.32	10.79 ± 0.34	31.2 ± 3.8	23.6 ± 2.1	4.66 ± 0.67	3.35 ± 0.21				
O=c1[15nH][13c](=O)[15nH]c2nc[nH]c12 [Compound 6, [2-^13C, 1,3-^15N2]-3,7-dihydro-1H-purine-2,6-dione]									reduced	77 ± 1.4	less than 10 minutes
